± gives the expanded uncertainty stated by the source.
Experiment: xn = mol fraction of the nth substance listed
Conditions: 100 kPa, Liquid; for speed of sound: Frequency=3 MHz, Sing-around technique in a fixed-path interferometer; for mass density: Vibrating tube method

O=C1CCCCC1 [cyclohexanone] + C1COCCO1
Conditions	mass density, 293.15 K [kg/m3]	mass density, 298.15 K [kg/m3]	mass density, 303.15 K [kg/m3]	mass density, 308.15 K [kg/m3]	speed of sound, 293.15 K [m/s]	speed of sound, 298.15 K [m/s]	speed of sound, 303.15 K [m/s]	speed of sound, 308.15 K [m/s]
x2 = 0.0999	953.66 ± 1	949.13 ± 1	944.25 ± 1	939.34 ± 1	1423.2 ± 1.3	1407.2 ± 1.3	1387 ± 1.3	1367.1 ± 1.3
x2 = 0.1548	957.29 ± 1	952.73 ± 1	947.83 ± 1	942.9 ± 1	1419 ± 1.4	1402.8 ± 1.4	1382.6 ± 1.4	1362.7 ± 1.3
x2 = 0.2064	960.83 ± 1	956.23 ± 1	951.32 ± 1	946.37 ± 1	1415.2 ± 1.4	1398.7 ± 1.4	1378.5 ± 1.4	1358.7 ± 1.4
x2 = 0.2523	964.08 ± 1	959.45 ± 1	954.52 ± 1	949.56 ± 1	1411.8 ± 1.4	1395.1 ± 1.4	1374.9 ± 1.4	1355 ± 1.4
x2 = 0.3087	968.21 ± 1	963.55 ± 1	958.59 ± 1	953.6 ± 1	1407.8 ± 1.4	1390.8 ± 1.4	1370.6 ± 1.4	1350.6 ± 1.4
x2 = 0.3412	970.67 ± 1	965.97 ± 1	960.99 ± 1	955.99 ± 1	1405.5 ± 1.4	1388.3 ± 1.4	1368.1 ± 1.4	1348.1 ± 1.4
x2 = 0.3952	974.86 ± 1	970.12 ± 1	965.11 ± 1	960.08 ± 1	1401.8 ± 1.4	1384.3 ± 1.4	1364 ± 1.4	1343.9 ± 1.4
x2 = 0.4315	977.76 ± 1	972.99 ± 1	967.96 ± 1	962.9 ± 1	1399.3 ± 1.4	1381.6 ± 1.4	1361.3 ± 1.4	1341.2 ± 1.4
x2 = 0.4875	982.38 ± 1	977.54 ± 1	972.47 ± 1	967.38 ± 1	1395.6 ± 1.4	1377.6 ± 1.4	1357.2 ± 1.4	1336.9 ± 1.4
x2 = 0.5348	986.41 ± 1	981.52 ± 1	976.42 ± 1	971.29 ± 1	1392.5 ± 1.4	1374.2 ± 1.4	1353.8 ± 1.4	1333.5 ± 1.4
x2 = 0.5798	990.36 ± 1	985.42 ± 1	980.28 ± 1	975.11 ± 1	1389.7 ± 1.4	1371.1 ± 1.4	1350.6 ± 1.4	1330.2 ± 1.4
x2 = 0.6145	993.49 ± 1	988.51 ± 1	983.33 ± 1	978.13 ± 1	1387.5 ± 1.4	1368.7 ± 1.4	1348.2 ± 1.4	1327.7 ± 1.4
x2 = 0.6698	998.63 ± 1	993.56 ± 1	988.34 ± 1	983.08 ± 1	1384.1 ± 1.4	1365 ± 1.4	1344.4 ± 1.4	1323.8 ± 1.4
x2 = 0.7148	1002.9 ± 1	997.82 ± 1	992.55 ± 1	987.23 ± 1	1381.5 ± 1.4	1362 ± 1.4	1341.4 ± 1.4	1320.7 ± 1.4
x2 = 0.7682	1008.2 ± 1	1003 ± 1	997.69 ± 1	992.32 ± 1	1378.5 ± 1.4	1358.7 ± 1.4	1338 ± 1.4	1317.1 ± 1.4
x2 = 0.8015	1011.6 ± 1	1006.4 ± 1	1001 ± 1	995.58 ± 1	1376.8 ± 1.5	1356.7 ± 1.4	1335.9 ± 1.4	1314.9 ± 1.4
x2 = 0.8542	1017.2 ± 1	1011.8 ± 1	1006.4 ± 1	1000.8 ± 1	1374.1 ± 1.5	1353.6 ± 1.5	1332.7 ± 1.5	1311.5 ± 1.5
x2 = 0.9054	1022.7 ± 1	1017.3 ± 1	1011.7 ± 1	1006.2 ± 1	1371.7 ± 1.5	1350.8 ± 1.5	1329.6 ± 1.5	1308.3 ± 1.5

From the NIST ThermoML archive (doi:10.1021/acs.jced.6b00606)
